Reference: patent US8222400B2, “Cyclodextrin compound modified with folic acid, process for production thereof, drug delivery agent for targeting drug delivery system, pharmaceutical composition, and imaging agent” (Nanodex Inc., priority 2007, dated 2012)
Each block holds one molecule with its values, some of them ahead of it.

What was measured:
[1] = SPR measurement of drug-inclusion association with immobilized DXR; type: binding; details: SPR linear plot, DXR-immobilized cuvette
Procedure: The capabilities of the CD compound of the invention were evaluated by the procedures similar to those of Experiment 7-1. An anticancer and antibiotic agent, doxorubicin (hereafter, referred to as “DXR”) was used as a drug.
Immobilization of DXR on the surface of an optical biosensor cuvette was performed by using the procedures similar to those of the above immobilization of FBP. A buffer with a different pH was used as a solvent for drugs.
An aminosilane group on the surface of the cuvette was reacted with a linker. 1 mM of the BS^3 solution/10 mM of phosphate buffer solution (pH 6.5) was used for the reaction. Then, an amino group of DXR was reacted with the other side of BS^3 linker. The steps were repeated one or more times until the response value became constant. An acetic anhydride-acetic acid solution (volume ratio 1:1) was injected into the cuvette to deactivate any remaining aminosilane groups and to block these. After the blocking, the solution was replaced by 10 mM acetic buffer (pH 5.3). The DXR solution (2 mg DXR/10 mM acetic buffer (pH5.3)) was added thereto. The reaction was carried out. […]
The kinetic behavior of the interaction of the exemplary compound 1 with DXR was measured by the procedures similar to those of Experiment 1. […]

Caco-2 tumor cells = experiment: SPR measurement of interaction with immobilized Caco-2 tumor cells; type: binding, human; details: SPR linear plot, varied concentrations, Caco-2 cells-immobilized cuvette
Procedure: The SPR measurements of the exemplary compound 1 that bound to human colon cancer-derived Caco-2 cells and, as comparative target cells, normal rat liver cells were conducted by using the similar foregoing procedures. Each interaction was evaluated comparatively.
Experiment 6-1: The SPR measurements of the interaction with Caco-2 tumor cells The immobilization of Caco-2 cells was performed by the procedures similar to those of Example 5 <Immobilization of FBP>. Instead of using the solution that was used for the immobilization of FBP, the solution containing a suitable amount and concentration of the solution (phosphate buffer solution (pH 7.3)+0.85% NaCl) (manufactured by CORNING) containing Caco-2 cells was used as a fixative. In addition, to the Caco-2 cells-immobilized cuvette was added 200 μl of the exemplary compound 1 ([…]) that was dissolved in the phosphate buffer solution (pH 7.3)+0.85% NaCl. The SPR measurements were then carried out.
Experiment 7-1: The measurements of the interaction with Caco-2 tumor cells The immobilization of Caco-2 cells was performed by the procedures similar to those of Example 5 <Immobilization of FBP>. […]

[2] = target: T1, folate binding proteins (FBP) (Bos taurus, UniProt P02702); experiment: SPR measurement of association with immobilized folate binding protein (FBP); details: each at 1.0×10^−6 M, 25.0° C.
T1 construct: purchased SIGMA
T1 sequence (P02702 20-234): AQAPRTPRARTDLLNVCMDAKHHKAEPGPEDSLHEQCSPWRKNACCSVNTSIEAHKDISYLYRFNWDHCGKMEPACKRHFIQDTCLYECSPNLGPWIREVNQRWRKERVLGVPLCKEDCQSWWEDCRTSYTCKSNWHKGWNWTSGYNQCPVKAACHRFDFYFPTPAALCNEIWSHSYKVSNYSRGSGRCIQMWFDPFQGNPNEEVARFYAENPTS
Procedure: Specifically, the ligand (e.g., folate-binding proteins) is immobilized on a cuvette, and the analyte (e.g., the cyclodextrin (CD) compound of the invention) that is dissolved in a buffer solution is injected into the above cuvette. Evanescent wave and surface plasmon wave excite the surface plasmon when the angle of incidence on a prism is […] the angle of total reflection. The angle of incidence is measured. The angle of incidence is changed depending on the mass within the evanescent field depth of 600 nm. The amount of the changes can be observed and refers to the response (R). This angle of incidence is proportional to the mass of the adsorbed molecule. In other words, these mass changes can indicate the interaction. The reagents used for immobilization were obtained as follows: • 1 mM BS^3 solution: 2.9 mg of Bis(sulfosuccinimidyl) suberate (BS^3) was dissolved into 5 ml of 10 mM phosphate buffer solution (pH 7.2); • a solution used for immobilization of FBP: 1 mg of FBP (manufactured by SIGMA) was dissolved into 1 ml of 10 mM phosphate buffer solution (pH 7.2). […] A saturation curve shown in FIG. 1 was obtained (measured at a temperature of 25.0° C.). […] The association characteristics of each compound that bound to FBP were evaluated.

[3] = target: folate receptor protein (FBP) overexpressed on the surface of cancer cells (Homo sapiens, UniProt P15328); details: from reviews (Wang and Low 1998; Low et al. 2008); cited from earlier work
folate receptor protein (FBP) overexpressed on the surface of cancer cells, sequence (P15328 25-234): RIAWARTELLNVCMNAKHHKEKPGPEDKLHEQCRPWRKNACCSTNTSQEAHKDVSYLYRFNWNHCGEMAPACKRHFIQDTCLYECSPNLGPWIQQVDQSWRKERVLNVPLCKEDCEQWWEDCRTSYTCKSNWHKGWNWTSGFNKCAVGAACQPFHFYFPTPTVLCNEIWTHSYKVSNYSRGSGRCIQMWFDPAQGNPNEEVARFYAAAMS

Association constant Ka (receptor Caco-2) (Caco-2 tumor cells): 18000 M⁻¹
SMILES: CNC(=O)CCC(NC(=O)c1ccc(NCc2cnc3nc(N)[nH]c(=O)c3n2)cc1)C(=O)O (stereo not shown) [Comparative Compound 3]
Association constant Ka (drug DXR) [1]: 2500 M⁻¹

SMILES: OC[C@H]1O[C@@H]2O[C@H]3[C@H](O)[C@@H](O)[C@@H](O[C@H]4[C@H](O)[C@@H](O)[C@@H](O[C@H]5[C@H](O)[C@@H](O)[C@@H](O[C@H]6[C@H](O)[C@@H](O)[C@@H](O[C@H]7[C@H](O)[C@@H](O)[C@@H](O[C@H]8[C@H](O)[C@@H](O)[C@@H](O[C@H]1[C@H](O)[C@H]2O)O[C@@H]8CO)O[C@@H]7CO)O[C@@H]6CO)O[C@@H]5CO)O[C@@H]4CO)O[C@@H]3CO [unmodified β-CD, β-cyclodextrin]
Interaction with FBP (SPR response, FIG. 1) [2]: did not exhibit any interaction properties

SMILES: Nc1nc2ncc(CNc3ccc(C(=O)N[C@@H](CCC(=O)O)C(=O)O)cc3)nc2c(=O)[nH]1 [folic acid]
Association constant for folate receptor protein (FBP) [3]: 10^10 M^−1
